Laboratory results taken from ChEMBL document CHEMBL4038297, “Fluorinated tranylcypromine analogues as inhibitors of lysine-specific demethylase 1 (LSD1, KDM1A)” (Bioorg Med Chem Lett, 2017).

Key:
[1] = tested on: THP-1; assay: Antiproliferative activity against human THP1 cells after 72 hrs by CellTitre-Glo assay; conditions: THP-1, 72 h
[2] = tested on: MV4-11; assay: Antiproliferative activity against human MV411 cells after 72 hrs by CellTitre-Glo assay; conditions: MV4-11, 72 h
[3] = biological target: Lysine-specific histone demethylase 1A (Homo sapiens, UniProt O60341); assay: Inhibition of recombinant human His-tagged LSD1 expressed in Escherichia coli BL21 (DE3) using H3K4me2 peptide as substrate preincubated for 10 mins followed by substrate addition measured after 20 mins by Amplex red dye based fluorescence assay

Row | SMILES | IC50 [1] [µM] | IC50 [2] [µM] | IC50 [3] [µM]
1 | N[C@H]1C[C@]1(F)c1cccc(F)c1 (relative stereo) | 1.6 | 4.9 | –
2 | N[C@H]1C[C@]1(F)c1cccc([N+](=O)[O-])c1 (relative stereo) | > 30 | > 30 | –
3 | N[C@H]1C[C@]1(F)c1ccccc1 | – | – | > 25
4 | COc1cccc([C@@]2(F)C[C@@H]2N)c1 (relative stereo) | 8.5 | 1.9 | –
5 | N[C@H]1C[C@@]1(F)c1ccc([N+](=O)[O-])cc1 (relative stereo) | – | – | > 50
6 | N[C@@H]1C[C@H]1c1ccccc1.N[C@H]1C[C@@H]1c1ccccc1 (racemic) [TRANYLCYPROMINE] | 810 | 630 | –
7 | N[C@H]1C[C@]1(F)c1ccc(F)cc1 | – | – | > 25
8 | N[C@H]1C[C@@]1(F)c1cccc(F)c1 (relative stereo) | 7 | 8.2 | –
9 | N[C@H]1C[C@@]1(F)c1ccc(F)cc1 | – | – | > 25
10 | N[C@H]1C[C@@]1(F)c1ccccc1 | – | – | > 25

Next, values leading:

Row | IC50 [1] [µM] | IC50 [2] [µM] | IC50 [3] [µM] | SMILES
11 | – | – | > 50 | CCOc1ccc([C@]2(F)C[C@@H]2N)cc1 (relative stereo)
12 | – | – | > 25 | Cc1ccc([C@@]2(F)C[C@@H]2N)cc1
13 | – | – | > 25 | COc1ccc([C@]2(F)C[C@@H]2N)cc1
14 | – | – | > 25 | Cc1ccc([C@]2(F)C[C@@H]2N)cc1
15 | – | – | > 50 | N[C@H]1C[C@]1(F)c1ccc([N+](=O)[O-])cc1 (relative stereo)
16 | – | – | > 50 | CCOc1ccc([C@@]2(F)C[C@@H]2N)cc1 (relative stereo)
17 | – | – | > 25 | COc1ccc([C@@]2(F)C[C@@H]2N)cc1
